Reference: patent publication US12428412B2 (DANA-FARBER CANCER INSTITUTE, INC., priority 2018, dated 2025)

Key:
HAT (EP300) domain = biological target: T1, HAT (EP300) domain (Homo sapiens, UniProt Q09472); test: AlphaScreen assay, HAT (EP300) domain; format: binding
T1 sequence (Q09472 1287-1663 limits assumed): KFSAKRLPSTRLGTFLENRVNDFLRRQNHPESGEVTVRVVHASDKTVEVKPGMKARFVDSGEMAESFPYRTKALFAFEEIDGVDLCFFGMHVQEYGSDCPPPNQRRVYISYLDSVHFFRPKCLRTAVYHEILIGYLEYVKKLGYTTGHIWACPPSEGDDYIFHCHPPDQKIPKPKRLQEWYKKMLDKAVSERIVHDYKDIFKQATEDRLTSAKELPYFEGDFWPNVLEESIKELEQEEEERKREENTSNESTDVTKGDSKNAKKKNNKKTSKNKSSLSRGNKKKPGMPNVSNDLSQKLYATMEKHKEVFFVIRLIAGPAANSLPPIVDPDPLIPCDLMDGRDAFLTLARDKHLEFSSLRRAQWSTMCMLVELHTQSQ
Procedure: The AlphaScreen™ assay was performed in 384-well plate format using white AlphaPlate (PerkinElmer®, USA), and transfer of pre-diluted compound (100 nL) was performed using a Janus Workstation (PerkinElmer®, USA). All subsequent steps were carried out in assay buffer (50 mM 4-(2-hydroxyethyl)-1-piperazineethanesulfonic acid (HEPES), pH 7.5, 0.1% (wt/vol) bovine serum albumin (BSA) and 0.01% (vol/vol) Tween-20). In brief, 10 μL of assay buffer containing enzyme (2 nM Final) was pre-incubated for 15 min with dilutions of compound. The enzyme reaction was initiated by the addition of substrate (5 μL) consisting of acetyl Co-A 2-OG (5 μM Final).
FAS final concentration was 10 μM. Histone tail-GGK Biotin final concentration was 100 nM Final. The enzyme reaction was allowed to proceed for 30 minutes and was stopped by the addition of 5 μL of assay buffer containing ethylenediaminetetraacetic acid (EDTA) (40 mM) and NaCl (1200 mM). The final concentration of dimethyl sulfoxide (DMSO) was 1%. Streptavidin donor beads (0.08 mg/mL) and protein-A-conjugated acceptor beads (0.08 mg/mL) were preincubated for 1 h with antibody to methyl mark (300 ng/mL Final), and the presence of histone H3 product acetylation mark was detected using the preincubated AlphaScreen™ beads (5 μL). Detection was allowed to proceed for 2 hours at rt, and the assay plates were read on the Envision™ 2104 plate reader. Data were normalized to the (no-enzyme) control, and the IC50 values were determined via nonlinear regression curve fit using GraphPad Prism (FIG. 4E-FIG. 4H).
AlphaScreen™ assay was used to determine the binding of inventive degrader compound toward both CRBN and HAT domain. The experimental protocol is the same as in Example 26.

cereblon (CRBN) = cereblon (CRBN) (Homo sapiens, UniProt Q96SW2); test: AlphaScreen assay, cereblon (CRBN); format: binding
From the text: An AlphaLISA® assay for EP300 catalytic function (FIG. 3B) and an AlphaScreen™ assay for EP300 bromodomain and cereblon (CRBN) using biotinylated tagged small molecules as a probe for EP300 bromodomain and CRBN, respectively, were developed (FIG. 3C).
AlphaScreen™ assay was used to determine the binding of inventive degrader compound toward both CRBN and HAT domain.

EP300 = biological target: T2, EP300 (Homo sapiens, UniProt Q09472); test: Proteomics analysis in Kelly NB cells, EP300; format: cell-based; conditions: 500 nM, 6 hours and 36 hours
T2 construct: Whole cell lysates were collected using ice cold lysis buffer; endogenous in cells; host or cells: Kelly neuroblastoma cells (incl. Ch2.2, LACZ and CRBN knockout lines)
Procedure: (§1) FIG. 9C is a plot of the proteomics analysis results after treating Kelly NB cells with CPD 1 (500 nM) at 6 hours and 36 hours.

CBP = biological target: T3, CBP (Homo sapiens, UniProt Q92793); test: Proteomics analysis in Kelly NB cells, CBP; format: cell-based; conditions: 500 nM, 6 hours and 36 hours
T3 construct: endogenous in cells; host or cells: Kelly neuroblastoma cells (incl. Ch2.2, LACZ and CRBN knockout lines)
Procedure: as §1

Kelly cells = test: Colony formation assay, Kelly cells; format: cell-based; conditions: 10 days
From the text: The experimental method for the colony formation assay is as described in Durbin et al., Nat Genet. 50(9):1240-60 (2018).

U266 cells = test: 4-day growth inhibition assay (ATPlite / cell counting kit), U266 cells; format: cell-based; conditions: 0-10 μM
Procedure: An aliquot of the ATP standard solution (ATPlite™ 1000 assay kit, PerkinElmer®, USA) was used to prepare a dilution series in water. A series of 100 μL of complete culture medium was pipetted without cells into the wells of the plate. To each well was added 50 μL of the mammalian cell lysis solution, and the plate was shaken for 5 minutes in an orbital shaker at 700 rpm. 10 μL of the ATP dilution series was added to the wells, and the plate was shaken for 5 minutes in an orbital shaker at 700 rpm. 50 μL of the substrate solution was added and the plate was shaken for 5 minutes in an orbital shaker at 700 rpm. The plate dark adapted the plate for 10 minutes prior to measuring the luminescence and then preparing a standard curve.

[1] = Mouse PK after intraperitoneal injection, blood concentration by LCMS/MS; format: in vivo; conditions: IP 10 mg/kg, male CD1 mice
Procedure: The compound concentration in animal blood was measured by LCMS/MS through a series bleeding at different time points. […] A-485 half life is 0.7 h in mice.
Maximum tolerance dose (MTD) of each candidate was determined in zebrafish embryos. 3-day-old zebrafish embryos were exposed to different drug concentrations and monitored for adverse health effects. […] Experiments were first carried out with compound CPD 1 as a guide in the further design of MTD assessment of lead EP300 degraders (FIG. 6B). The MTD of the degrader is also determined in mice in the similar manor. Briefly, mice were dosed with test compounds and blood and plasma is isolated at specific intervals post-administration (0.083, 0.25, 0.5, 1, 2, 4, 8, 12, and 24 h) and quantified for the presence of test article by LC/MS/MS (n=5 mice/compound). In vivo mouse PK experiments were used to determine these parameters and inform iterative rounds of medicinal chemistry for optimization of EP300 degraders (FIG. 6A). As degraders have a relatively large molecular weight, the proper formulation is investigated to increase the solubility and stability of the degraders for in vivo study. Together, these parameters, including the established MTD, are used to guide the in vivo study design, such as administration method, dosing, and schedule for the following experiment. The information obtained was also used to guide the degrader optimization conducted in Example 36.

H3K27Ac = test: Immunohistochemistry (IHC) staining of liver from MTD study, H3K27Ac; format: in vivo; conditions: normal mice, 40 mpk, 14-day treatment
From the text: Immunohistochemistry (IHC) staining was used to examine a liver from MTD study. […] No changes in CBP and H3K27Ac levels were observed.

[2] = system: Kelly cell lines xenograft; test: Xenograft model of Kelly cell lines; format: in vivo; conditions: 40 mpk IP from day 10
From the text: The xenograft model of Kelly cell lines was used to assess the in vivo efficacy. The Kelly cells were implanted 2 M into animals. The treatment started with day 10 at 40 mpk IP.

cereblon (CRBN), sequence (Q96SW2 whole entry): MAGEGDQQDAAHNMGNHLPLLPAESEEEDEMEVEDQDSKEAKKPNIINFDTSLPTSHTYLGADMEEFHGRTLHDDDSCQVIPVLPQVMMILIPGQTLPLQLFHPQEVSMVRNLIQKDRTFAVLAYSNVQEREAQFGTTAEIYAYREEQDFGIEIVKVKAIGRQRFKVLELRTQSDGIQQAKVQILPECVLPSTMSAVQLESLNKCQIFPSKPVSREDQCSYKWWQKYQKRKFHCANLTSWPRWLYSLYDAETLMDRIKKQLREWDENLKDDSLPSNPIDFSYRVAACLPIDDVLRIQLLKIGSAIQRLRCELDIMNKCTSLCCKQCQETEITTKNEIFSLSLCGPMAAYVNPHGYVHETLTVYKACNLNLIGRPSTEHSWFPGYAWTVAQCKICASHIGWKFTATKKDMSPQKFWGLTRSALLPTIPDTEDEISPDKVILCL
T2 sequence (Q09472 whole entry): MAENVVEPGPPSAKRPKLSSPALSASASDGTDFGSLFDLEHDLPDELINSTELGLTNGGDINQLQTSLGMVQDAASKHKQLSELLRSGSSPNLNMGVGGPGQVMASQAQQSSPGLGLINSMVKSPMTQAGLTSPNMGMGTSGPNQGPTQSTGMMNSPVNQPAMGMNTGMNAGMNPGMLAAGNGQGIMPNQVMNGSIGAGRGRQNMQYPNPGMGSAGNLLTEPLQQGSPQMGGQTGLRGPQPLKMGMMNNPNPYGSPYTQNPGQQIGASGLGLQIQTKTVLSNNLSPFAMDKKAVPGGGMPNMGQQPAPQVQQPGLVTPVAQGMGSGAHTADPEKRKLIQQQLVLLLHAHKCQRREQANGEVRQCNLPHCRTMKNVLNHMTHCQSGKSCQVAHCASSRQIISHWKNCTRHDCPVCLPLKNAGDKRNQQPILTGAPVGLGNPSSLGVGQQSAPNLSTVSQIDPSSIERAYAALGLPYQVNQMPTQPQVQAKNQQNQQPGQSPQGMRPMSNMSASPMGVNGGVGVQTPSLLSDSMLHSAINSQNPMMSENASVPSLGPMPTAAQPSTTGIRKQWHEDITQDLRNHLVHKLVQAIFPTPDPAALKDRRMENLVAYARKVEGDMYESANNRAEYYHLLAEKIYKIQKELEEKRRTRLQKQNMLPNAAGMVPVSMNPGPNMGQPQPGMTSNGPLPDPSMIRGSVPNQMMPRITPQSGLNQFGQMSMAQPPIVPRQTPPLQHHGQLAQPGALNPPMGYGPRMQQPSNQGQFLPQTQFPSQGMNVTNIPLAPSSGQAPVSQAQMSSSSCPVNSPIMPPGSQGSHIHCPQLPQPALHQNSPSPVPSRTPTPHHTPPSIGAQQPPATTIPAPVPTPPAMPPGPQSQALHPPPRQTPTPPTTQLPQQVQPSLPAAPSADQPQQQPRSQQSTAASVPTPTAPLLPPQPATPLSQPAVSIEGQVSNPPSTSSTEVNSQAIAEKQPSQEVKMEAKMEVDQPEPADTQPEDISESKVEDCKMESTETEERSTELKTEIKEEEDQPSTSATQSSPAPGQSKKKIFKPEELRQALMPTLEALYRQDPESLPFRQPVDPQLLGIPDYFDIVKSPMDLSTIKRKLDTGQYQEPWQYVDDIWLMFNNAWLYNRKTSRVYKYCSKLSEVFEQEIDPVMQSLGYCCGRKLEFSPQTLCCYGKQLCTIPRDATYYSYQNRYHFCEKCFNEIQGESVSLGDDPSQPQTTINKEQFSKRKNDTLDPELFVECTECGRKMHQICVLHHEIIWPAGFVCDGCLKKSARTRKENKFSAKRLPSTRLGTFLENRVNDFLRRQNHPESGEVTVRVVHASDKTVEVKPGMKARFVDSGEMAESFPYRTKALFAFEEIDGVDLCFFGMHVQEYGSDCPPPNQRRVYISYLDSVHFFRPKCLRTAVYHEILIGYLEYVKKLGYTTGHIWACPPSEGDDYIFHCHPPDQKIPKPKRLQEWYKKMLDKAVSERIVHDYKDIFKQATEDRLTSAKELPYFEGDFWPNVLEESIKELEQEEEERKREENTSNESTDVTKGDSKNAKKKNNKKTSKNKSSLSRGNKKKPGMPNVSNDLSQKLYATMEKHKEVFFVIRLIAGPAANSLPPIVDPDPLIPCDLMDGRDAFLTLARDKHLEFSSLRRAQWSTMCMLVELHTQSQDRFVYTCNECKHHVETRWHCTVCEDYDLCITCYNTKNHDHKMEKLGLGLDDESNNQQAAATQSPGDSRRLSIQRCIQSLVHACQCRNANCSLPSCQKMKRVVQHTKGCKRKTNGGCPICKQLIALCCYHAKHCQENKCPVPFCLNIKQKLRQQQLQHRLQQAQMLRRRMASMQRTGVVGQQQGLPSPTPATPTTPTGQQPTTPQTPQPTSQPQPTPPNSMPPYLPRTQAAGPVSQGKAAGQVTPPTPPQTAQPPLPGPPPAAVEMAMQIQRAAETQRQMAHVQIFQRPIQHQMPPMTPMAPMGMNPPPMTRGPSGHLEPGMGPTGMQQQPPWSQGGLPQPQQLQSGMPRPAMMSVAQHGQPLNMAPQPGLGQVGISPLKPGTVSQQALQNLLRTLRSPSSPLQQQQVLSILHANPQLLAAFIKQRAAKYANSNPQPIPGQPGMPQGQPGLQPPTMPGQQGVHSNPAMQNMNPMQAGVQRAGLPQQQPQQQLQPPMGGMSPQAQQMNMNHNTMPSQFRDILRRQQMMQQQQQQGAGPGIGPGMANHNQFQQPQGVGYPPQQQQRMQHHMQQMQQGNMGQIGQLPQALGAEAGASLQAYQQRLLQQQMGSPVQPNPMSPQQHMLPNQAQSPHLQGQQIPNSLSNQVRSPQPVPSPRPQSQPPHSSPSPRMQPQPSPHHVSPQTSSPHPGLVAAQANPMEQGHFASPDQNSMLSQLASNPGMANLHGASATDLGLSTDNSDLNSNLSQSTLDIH

## C[C@H](N(Cc1ccc(F)cc1)C(=O)CN1C(=O)O[C@@]2(CCc3cc(NC(=O)CCCCCCCCCCCNc4ccc5c(c4)C(=O)N(C4CCC(=O)NC4=O)C5=O)ccc32)C1=O)C(F)(F)F (stereo partly drawn) [CPD 1, 12-((2-(2,6-dioxopiperidin-3-yl)-1,3-dioxoisoindolin-5-yl)amino)-N—((R)-3′-(2-((4-fluorobenzyl)((S)-1,1,1-trifluoropropan-2-yl)amino)-2-oxoethyl)-2′,4′-dioxo-2,3-dihydrospiro[indene-1,5′-oxazolidin]-5-yl)dodecanamide]
HAT (EP300) domain
  binding to HAT (EP300) domain: bound and bind
Cereblon (CRBN)
  binding to cereblon (CRBN): bound and bind
EP300
  EP300 degradation (proteomics): selectively and significantly degraded
CBP
  CBP level (proteomics): No changes in the CBP level were observed
Kelly cells
  Kelly cell growth, colony formation: inhibited the Kelly cell growth in a dose dependent manner
U266 cells
  growth inhibition compared with A485: outperformed inhibitor A485
[1]
  toxicity in PK study: No toxicity was observed
[1]; mouse, whole blood, n=3
  Cmax: 5 µM
  half-life: 13 h
H3K27Ac
  H3K27Ac level in liver tissue: No changes
[2]
  survival of animals: extended the survival of animals
  tumor progression: reduced tumor progression
